# Measurements from PubChem BioAssay (NCI).
# Values joined by “and” are separate entries in the source; they are usually repeats but may differ in a detail not shown here. Identical values can stand only once.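 Compound exposure: 48 hours, 5 concentrations, 96-well plates. TGI denotes the concentration required for complete inhibition of growth.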
# Test system: IGROV1 ovarian
# Assay: NCI anticancer screen, dose series, 48 h
row,SMILES,TGI [µM]
1,COc1c(O)c2c3c(c(C)cc(O)c3c1O)C(=O)C(O)(C(C)(C)C(C)=O)C2=O (stereo not drawn),> 100
2,Nc1nc(N)c(N=O)c(Nc2ccc(Br)cc2)n1,39.4
3,C[C@]12CC[C@@H]3c4ccc(O)cc4CC[C@H]3[C@@H]1C/C(=C\c1ccncc1)[C@@H]2O,28.7
4,S=C(/N=c1\sc(Nc2ccc(Cl)cc2)nc2sc3c(c12)CCN(N1CCc2c(sc4nc(Nc5ccc(Cl)cc5)s/c(=N\C(=S)Nc5ccc(Cl)cc5)c24)C1)C3)Nc1ccc(Cl)cc1,> 100
5,O=c1ccn(C2OC(CO)C(P(=O)(O)O)C2O)c(=O)[nH]1 (stereo not drawn),> 100
6,CCC1=CC2CN3Cn4c(c(COCc5c6n(c7ccccc57)CN5CC7C=C(CC)C5C6(C(=O)OC)C7)c5ccccc54)C(C(=O)OC)(C2)C13,> 100
7,O=C(Cc1ccccc1)NN1C(=O)/C(=C\c2ccccc2)SC1=Nc1ccccc1,> 100

# Test system: NCI/ADR-RES ovarian
# Assay: NCI anticancer screen, dose series, 48 h
row,SMILES,TGI [µM]
1,CN(Cc1ccccc1)c1cc(=O)n(C)c(=O)[nH]1,> 100
2,CC(=O)Oc1cc(C(F)(F)F)ccc1C(=O)OC1(C)OC(=O)c2ccc(C(F)(F)F)cc2O1 (stereo not drawn),> 100
3,CC1CN=C(N(C(=O)Nc2ccc(F)c(Cl)c2)c2ccccc2)S1 (stereo not drawn),43
4,COc1ccc(/C=C2\C[C@H]3[C@@H]4CCC5=C/C(=N/O)CC[C@]5(C)[C@H]4CC[C@]3(C)\C2=N\O)cc1OC,> 100
5,C(=Nc1ccc(-c2nc3ccccc3o2)cc1)c1ccco1,> 100
6,O=C(Nc1ccccc1F)c1cc2ccc(O)cc2oc1=Nc1ccccc1F,5.93
7,N/C(=N\S(=O)(=O)c1c(C(F)(F)F)cccc1C(F)(F)F)Nc1ccc(Cl)cc1,50.1
8,Clc1ccc(CSCCc2ccncc2)cc1Cl,50.5
9,CC1(C)C2CC(=O)C1(C)C(O)C2Br (stereo not drawn),> 100
10,CC(C)(C)OC(=O)NCCC(N)=S,> 100
11,CCCCn1cnc2c(c(CC#N)nn2-c2ccccc2)c1=N,> 100
12,CCN1CCCC(NCc2c3ccccc3c(CNC3CCCN(CC)C3)c3ccccc23)C1 (stereo not drawn),79.7
13,C[C@]12CC[C@@H]3c4ccc(O)cc4CC[C@H]3[C@@H]1C/C(=C\c1ccncc1)[C@@H]2O,33.5
14,S=C(/N=c1\sc(Nc2ccc(Cl)cc2)nc2sc3c(c12)CCN(N1CCc2c(sc4nc(Nc5ccc(Cl)cc5)s/c(=N\C(=S)Nc5ccc(Cl)cc5)c24)C1)C3)Nc1ccc(Cl)cc1,> 100
15,O=C(Cc1ccccc1)NN1C(=O)/C(=C\c2ccccc2)SC1=Nc1ccccc1,> 100

# Test system: OVCAR-5 ovarian
# Assay: NCI anticancer screen, dose series, 48 h
row,SMILES,TGI
1,Cn1ccnc1C(O)(c1nccn1C)c1nccn1C,> 100 µM
2,CCN(CC)CCCNC(=O)c1ccc([N+](=O)[O-])cc1O,> 100 µM
3,CN(Cc1ccccc1)c1cc(=O)n(C)c(=O)[nH]1,> 100 µM
4,COc1ccc(-c2c3c([nH]c(=S)c2C#N)CC(C)(C)CC3=O)cc1,> 100 µM
5,CC(=O)Oc1cc(C(F)(F)F)ccc1C(=O)OC1(C)OC(=O)c2ccc(C(F)(F)F)cc2O1 (stereo not drawn),> 100 µM
6,COc1cc2c(cc1OC)[C@H]1CN3CCC[C@H]3C=C1c1ccc(OC)c(O)c1-2,0.00431 µM and 0.0108 µM
7,Cc1cn([C@@H]2C[C@H](CO)[C@@H](O)C2)c(=O)[nH]c1=O,> 100 µM
8,CC1CN=C(N(C(=O)Nc2ccc(F)c(Cl)c2)c2ccccc2)S1 (stereo not drawn),76.3 µM
9,C=Cc1ccc(C)[n+](C[Si](C)(C)O[Si](C)(C)C[n+]2cc(C=C)ccc2C)c1,> 100 µM
10,O=c1[nH]cnc(NC2C=C(CO)C(O)C2O)c1[N+](=O)[O-] (stereo not drawn),> 100 µM
11,O=C(NC(COC(=O)C(Cc1ccccc1)NC(=O)c1ccccc1)Cc1ccccc1)c1ccccc1 (stereo not drawn),> 50 µM
12,CC(=O)OCC1OC(n2cc(I)c(=O)[nH]c2=O)C(OC(C)=O)C(OC(C)=O)C1OC(C)=O (stereo not drawn),> 100 µM
13,COc1ccc(/C=C2\C[C@H]3[C@@H]4CCC5=C/C(=N/O)CC[C@]5(C)[C@H]4CC[C@]3(C)\C2=N\O)cc1OC,> 100 µM
14,C(=Nc1ccc(-c2nc3ccccc3o2)cc1)c1ccco1,> 100 µM
15,CC(C(=O)N1C(=O)N(C(=O)C(C)C(O)c2ccccc2)C2CCCCC21)C(O)c1ccccc1 (stereo not drawn),> 100 µM
16,O=C1NCCS(=O)(=O)N[C@@H](CC2=CC=CCC2)C(=O)N2CCCC12 (stereo partly drawn),> 100 µM

row,SMILES,TGI
1,CC(C)=CCC/C(C)=C/COC(C)(C)C1=CCC(C)CC1 (stereo not drawn) (tested in a mixture with another compound),> 100 µM
2,O=C(Nc1ccccc1F)c1cc2ccc(O)cc2oc1=Nc1ccccc1F,15.3 µM
3,N/C(=N\S(=O)(=O)c1c(C(F)(F)F)cccc1C(F)(F)F)Nc1ccc(Cl)cc1,73.1 µM
4,Clc1ccc(CSCCc2ccncc2)cc1Cl,66.8 µM
5,CC1(C)C2CC(=O)C1(C)C(O)C2Br (stereo not drawn),> 100 µM
6,CC(C)(C)OC(=O)NCCC(N)=S,> 100 µM
7,CCCCn1cnc2c(c(CC#N)nn2-c2ccccc2)c1=N,> 100 µM
8,COc1ccc(-c2oc(/C=N/NC(N)=S)c([N+](=O)[O-])c2-c2ccc(OC)c(OC)c2)cc1OC,> 100 µM
9,CCN1CCCC(NCc2c3ccccc3c(CNC3CCCN(CC)C3)c3ccccc23)C1 (stereo not drawn),19.8 µM
10,COc1c(O)c2c3c(c(C)cc(O)c3c1O)C(=O)C(O)(C(C)(C)C(C)=O)C2=O (stereo not drawn),> 100 µM
11,Nc1nc(N)c(N=O)c(Nc2ccc(Br)cc2)n1,> 100 µM
12,C[C@]12CC[C@@H]3c4ccc(O)cc4CC[C@H]3[C@@H]1C/C(=C\c1ccncc1)[C@@H]2O,> 100 µM
13,S=C(/N=c1\sc(Nc2ccc(Cl)cc2)nc2sc3c(c12)CCN(N1CCc2c(sc4nc(Nc5ccc(Cl)cc5)s/c(=N\C(=S)Nc5ccc(Cl)cc5)c24)C1)C3)Nc1ccc(Cl)cc1,54.2 µM
14,O=c1ccn(C2OC(CO)C(P(=O)(O)O)C2O)c(=O)[nH]1 (stereo not drawn),> 100 µM
15,O=C(Cc1ccccc1)NN1C(=O)/C(=C\c2ccccc2)SC1=Nc1ccccc1,> 100 µM
